Data reported in ChEMBL document CHEMBL5247626, “In vitro and in vivo biological evaluation of newly synthesized multi-target 20(R)-panaxadiol derivatives for treating Alzheimer's disease” (Eur J Med Chem, 2022).
Activity calls are given as the source filed them. The calls are words filed in the database; no cut-off is given here.

Columns and labels:
[1] = biological target: Amyloid-beta precursor protein (Homo sapiens) (UniProt P05067); test: Disaggregation of amyloid beta (25 to 35) (unknown origin) self aggregation at 15 uM incubated for 24 hrs by transmission electron microscopy analysis
[2] = Permeability of the compound incubated for 4 hrs by PAMPA-BBB assay based HPLC analysis
[3] = system: PC-12; test: Neuroprotective activity against amyloid beta (25 to 35)-induced rat PC12 cells assessed as decrease in tau hyperphosphorylation at Thr181 at 15 uM preincubated for 30 mins followed by amyloid beta (25 to 35) addition and measured after 24 hrs by western blot assay; assay type: functional, cell-based; conditions: time 24.5 hrs
[4] = system: PC-12; test: Neuroprotective activity against amyloid beta (25 to 35)-induced rat PC12 cells assessed as decrease in total tau protein expression level at 15 uM preincubated for 30 mins followed by amyloid beta (25 to 35) addition and measured after 24 hrs by western blot assay; assay type: functional, cell-based; conditions: time 24.5 hrs
[5] = system: Mus musculus; test: Antialzheimer activity against amyloid beta (25 to 35)-induced cognitive deficit ICR mouse model assessed as effect on total number of arm enteries at 1.3 mg/kg,po observed after 11 days of administration by Y maze test; assay type: functional, organism-based; conditions: time 11.0 day
[6] = system: Mus musculus; test: Antialzheimer activity against amyloid beta (25 to 35)-induced cognitive deficit ICR mouse model assessed as attenuation of behavioral deficit at 1.3 mg/kg,po observed after 12 to 15 days of administration by Y maze test; assay type: functional, organism-based; conditions: time 12-15 day
[7] = system: Mus musculus; test: Antialzheimer activity against amyloid beta (25 to 35)-induced cognitive deficit ICR mouse model assessed as increase in discrimination index at 1.3 mg/kg,po observed after 1 hr of administration by novel object recognition test; assay type: functional, organism-based
[8] = system: Mus musculus; test: Antialzheimer activity against amyloid beta (25 to 35)-induced cognitive deficit ICR mouse model assessed as increase in preferential index at 1.3 mg/kg,po observed after 1 hr of administration by novel object recognition test; assay type: functional, organism-based
[9] = system: Mus musculus; test: Antialzheimer activity against amyloid beta (25 to 35)-induced cognitive deficit ICR mouse model assessed as increase in discrimination index at 1.3 mg/kg,po observed after 24 hrs of administration by novel object recognition test; assay type: functional, organism-based
[10] = system: Mus musculus; test: Antialzheimer activity against amyloid beta (25 to 35)-induced cognitive deficit ICR mouse model assessed as increase in preferential index at 1.3 mg/kg,po observed after 24 hrs of administration by novel object recognition test; assay type: functional, organism-based
[11] = system: Mus musculus; test: Antialzheimer activity against amyloid beta (25 to 35)-induced spatial memory deficit ICR mouse model assessed as increase in exploration time spent at 1.3 mg/kg,po observed at 16 to 20 days of administration by morris water maze test; assay type: functional, organism-based; conditions: time 16-20 day
[12] = system: Mus musculus; test: Antialzheimer activity against amyloid beta (25 to 35)-induced spatial memory deficit ICR mouse model assessed as increase in distance travelled in target quadrant at 1.3 mg/kg,po observed at 16 to 20 days of administration by morris water maze test; assay type: functional, organism-based; conditions: time 16-20 day
[13] = system: PC-12; test: Neuroprotective activity against amyloid beta (25 to 35)-induced rat PC12 cells assessed as reduction in amyloid beta (25 to 35)-induced apoptosis rate at 15 uM incubated for 15 mins by Annexin V-FITC/PI staining based flow cytometric analysis (reference value: 2.9%); assay type: functional; set-up: scale not given: the % may be the effect or the level left; conditions: 0.25 h
[14] = system: PC-12; test: Neuroprotective activity against amyloid beta (25 to 35)-induced rat PC12 cells assessed as decrease in intracellular ROS level at 7.5 uM incubated for 24 hrs by DCFH-DA staining based flow cytometry assay; assay type: functional, cell-based
[15] = system: PC-12; test: Neuroprotective activity against rat PC12 cells assessed as reduction in amyloid beta (25 to 35)-induced cytotoxicity at 15 uM incubated for 4 hrs followed by amyloid beta (25 to 35) treatment for 24 hrs by MTT assay relative to control; assay type: functional; set-up: scale not given: the % may be the effect or the level left; conditions: time 28 hrs

Amyloid-beta precursor protein (Homo sapiens), sequence (P05067 whole entry): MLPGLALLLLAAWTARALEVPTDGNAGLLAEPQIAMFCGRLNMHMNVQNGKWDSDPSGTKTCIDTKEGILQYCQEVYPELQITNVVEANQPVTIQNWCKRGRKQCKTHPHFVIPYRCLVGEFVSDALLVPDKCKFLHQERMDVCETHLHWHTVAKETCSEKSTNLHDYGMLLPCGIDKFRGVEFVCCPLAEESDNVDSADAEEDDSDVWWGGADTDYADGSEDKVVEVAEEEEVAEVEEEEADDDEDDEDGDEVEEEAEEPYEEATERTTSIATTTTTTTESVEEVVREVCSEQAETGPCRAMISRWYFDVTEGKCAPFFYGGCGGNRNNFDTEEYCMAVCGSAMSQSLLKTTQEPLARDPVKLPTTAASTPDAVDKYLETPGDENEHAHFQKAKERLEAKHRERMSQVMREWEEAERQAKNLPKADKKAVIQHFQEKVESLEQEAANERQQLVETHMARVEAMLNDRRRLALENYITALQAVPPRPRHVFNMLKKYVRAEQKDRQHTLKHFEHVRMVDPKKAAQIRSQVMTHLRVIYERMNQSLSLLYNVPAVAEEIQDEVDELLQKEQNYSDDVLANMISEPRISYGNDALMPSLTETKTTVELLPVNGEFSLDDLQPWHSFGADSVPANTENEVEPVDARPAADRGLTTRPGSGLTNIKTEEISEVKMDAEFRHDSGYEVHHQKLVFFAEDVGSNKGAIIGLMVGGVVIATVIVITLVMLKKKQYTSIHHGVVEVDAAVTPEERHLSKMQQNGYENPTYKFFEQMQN

COc1cc(/C=C/C(=O)CC(=O)/C=C/c2ccc(O)c(OC)c2)ccc1O
Activity [1]: Active

NC(=O)N1c2ccccc2C=Cc2ccccc21 [CARBAMAZEPINE]
Papp at 4 h [2]: 8.78 ×10⁻⁶ cm/s

COc1cc2c(cc1OC)C(=O)C(CC1CCN(Cc3ccccc3)CC1)C2 (stereo not drawn)
Activity [3]: Active
Activity [4]: Active
Activity [5]: inactive
Activity [6]: Active
Activity [7]: inactive
Activity [8]: inactive
Activity [9]: Active
Activity [10]: Active
Activity [11]: Active
Activity [12]: Active

CC1(C)CCC[C@](C)([C@H]2CC[C@]3(C)[C@@H]2[C@H](O)C[C@@H]2[C@@]4(C)CC[C@H](O)C(C)(C)[C@@H]4CC[C@]23C)O1 [PANAXADIOL]
Activity [13]: 5.4%
Activity [14]: Active
Activity [3]: Active
Activity [4]: Active

CC1(C)CCC[C@](C)([C@H]2CC[C@]3(C)[C@@H]2[C@H](O)C[C@@H]2[C@@]4(C)CC[C@H](OC(=O)c5cn(-c6ccc(Cl)cc6)nn5)C(C)(C)[C@@H]4CC[C@]23C)O1
Activity [15]: 36.15%

COc1ccc(NC(=O)O[C@H]2CC[C@]3(C)[C@H]4C[C@@H](O)[C@@H]5[C@@H]([C@@]6(C)CCCC(C)(C)O6)CC[C@@]5(C)[C@]4(C)CC[C@H]3C2(C)C)cc1
Activity [15]: 65.27%
